From US20080269201A1, “Azepane- or Azocane-Substituted Pyrazoline Derivatives, Their Preparation and Use as Medicaments” (LABORATORIOS DEL DR. ESTEVE, S.A., priority 2005, published 2008)

Experiments:
[1] = target: T1, transfected human CB1 receptor (Homo sapiens, UniProt P21554); assay: In-vitro determination of affinity to CB1/CB2 receptors, radioligand [3H]-CP55940; conditions: binding to CB1/CB2 receptors as described, table does not name the subtype, text points to CB1
T1 construct: purchased Receptor Biology, Inc
Experimental: The in-vitro determination of the affinity of the inventive quaternary ammonium salts of substituted pyrazoline compounds to CB1/CB2-Rezeptors is carried out as described in the publication of Ruth A. Ross, Heather C. Brockie et al., “Agonist-inverse agonist characterization at CB1 and CB2 cannabinoid receptors of L-759633, L759656 and AM630”, British Journal of Pharmacology, 126, 665-672, (1999), whereby the transfected human CB1 and CB2 receptors of Receptor Biology, Inc. are used. The radioligand used for both receptors is [^3H]-CP55940. The respective parts of the description are hereby incorporated by reference and forms part of the present disclosure.
The affinity of the inventive substituted pyrazoline compounds to CB1/CB2 receptors was determined as described above.

[2] = target: T2, recombinant human cannabinoid 1 receptor (CB1), CHO cell membranes (Homo sapiens, UniProt P21554); assay: [35S]GTPγS binding assay, antagonism against WIN 55,212-2; assay type: biochemical; conditions: compound at 1 μM against WIN 55,212-2 dose response; 100% = effect of internal standard CB1-antagonist
T2 construct: expressed in transfected cells; membranes prepared
Experimental: Chinese hamster ovary (CHO) cells stably expressing recombinant human cannabinoid 1 receptor (CB1) were cultured in nutrient mixture Ham's F 12 supplemented with 10% heat-inactivated fetal bovine serum, 2 mM L-glutamine, 50 U/ml penicillin, 50 U/ml streptomycin and 0.5 mg/ml geneticin. In order to obtain cells, culture flasks were washed twice with phosphate buffered saline and scraped. Then, cells were collected by centrifugation (200×g, 10 min) and stored dry at −80° C. Cells were homogenized in ice-cold 20 mM HEPES, 10 mM EDTA (pH 7.5) and centrifuged at 40,000×g for 15 min at 4° C. The pellet was resuspended in 20 mM HEPES, 0.1 mM EDTA (pH 7.5) and centrifuged for 15 min at 4° C. The final pellet was resuspended in 20 mM HEPES, 0.1 mM EDTA (pH 7.5), and divided in aliquots and stored at −80° C. until use.
The reaction was performed in 96-well plates. Membranes (15 µg protein/well) were incubated for 60 min at 30° C. in buffer (50 mM HEPES, 100 mM KCl, 5 mM MgCl2, 1 mM EDTA, 0.1% wt/vol bovine serum albumin, […], saponin (10 μg/ml), 0.5 nM [^35S]GTPγS, pH 7.4) with compound at 1 μM final concentration in either the absence or presence of dose response curve of agonist WIN 55, 212-2 between 3 nM and 3 μM. The incubation was terminated by rapid filtration through Millipore Multiscreen glass fiber FB, and rinsed two-times with ice-cold assay buffer. Filter plates were dried and 30 μl of scintillation liquid was added. Radioactivity was determined using Wallac Microbeta Trilux. Each experiment was performed at least in duplicate. A WIN 55, 212-2 dose-response was systematically performed.
The average of basal [^35S]GTPγS binding was subtracted from all binding data. In order to compare the antagonism results from one screening campaign to another one, the difference between the maximal agonist effect of WIN 55, 212-2 alone, and the maximal antagonism effect due to WIN 55, 212-2 with an internal standard CB1-antagonist was defined as 100%.
The determination of cannabinoid activity in-vivo was determined as described above.

[3] = In vivo testing for antiobesic activity, acute treatment; conditions: rats, acute oral administration, HCl-salts; body weight difference vs control
Experimental: Normally handled rats were habituated to a reversed cycle 12/12 h, and the compound as well as saline was acutely orally administered. After administration the cumulated food intake (g) was measured at 6 h and 23 h. Following that the difference in body weight between control and compound treated animals was measured.

T1 sequence (P21554 whole entry): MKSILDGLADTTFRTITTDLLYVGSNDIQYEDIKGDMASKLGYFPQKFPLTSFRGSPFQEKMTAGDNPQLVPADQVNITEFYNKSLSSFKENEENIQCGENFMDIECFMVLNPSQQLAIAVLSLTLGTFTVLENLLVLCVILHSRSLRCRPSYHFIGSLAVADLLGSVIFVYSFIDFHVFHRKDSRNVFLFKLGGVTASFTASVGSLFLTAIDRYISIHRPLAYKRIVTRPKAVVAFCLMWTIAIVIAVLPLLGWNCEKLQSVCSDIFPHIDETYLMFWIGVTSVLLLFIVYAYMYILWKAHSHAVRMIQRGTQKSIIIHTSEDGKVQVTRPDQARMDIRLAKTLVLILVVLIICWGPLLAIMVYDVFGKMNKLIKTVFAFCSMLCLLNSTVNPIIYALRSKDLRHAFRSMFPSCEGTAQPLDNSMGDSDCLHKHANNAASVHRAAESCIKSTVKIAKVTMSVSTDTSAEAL
T2 sequence (P21554 whole entry): as above

Antagonism (%) [2] [%]	SMILES	IC50 [1] [nM]	Antiobesic activity (reducing weight) [3]
83 ± 6	C[C@H]1C(C(=O)NN2CCCCCC2)=NN(c2ccc(Cl)cc2Cl)[C@H]1c1ccc(F)cc1.Cl (relative stereo) [7 (HCl), cis-N-(azepan-1-yl)-5-(4-fluorophenyl)-1-(2,4-dichlorophenyl)-4-methyl-4,5-dihydro-1H-pyrazole-3-carboxamide hydrochloride]	122	
99 ± 5	C[C@H]1C(C(=O)NN2CCCCCC2)=NN(c2ccc(Cl)cc2Cl)[C@H]1c1ccc(Cl)cc1.Cl (relative stereo) [Example 1, cis-N-(azepan-1-yl)-5-(4-chlorophenyl)-1-(2,4-dichlorophenyl)-4-methyl-4,5-dihydro-1H-pyrazole-3-carboxamide hydrochloride]	7.9 ± 2.8	active in this model, reducing weight
52	C[C@H]1C(C(=O)NN2CCCCCC2)=NN(c2ccc(Cl)cc2Cl)[C@H]1c1ccc(F)cc1 [Example 7]		

SMILES	Antagonism (%) [2] [%]	IC50 [1] [nM]	Antiobesic activity (reducing weight) [3]
C[C@H]1C(C(=O)NN2CCCCCC2)=NN(c2ccc(Cl)cc2Cl)[C@H]1c1ccc(Br)cc1.Cl (relative stereo) [Example 5, cis-N-(azepan-1-yl)-5-(4-bromophenyl)-1-(2,4-dichlorophenyl)-4-methyl-4,5-dihydro-1H-pyrazole-3-carboxamide hydrochloride]	133 ± 5	71 ± 2	active in this model, reducing weight
COc1ccc([C@H]2[C@@H](C)C(C(=O)NN3CCCCCC3)=NN2c2ccc(Cl)cc2Cl)cc1.Cl (relative stereo) [Example 9, cis-N-(azepan-1-yl)-1-(2,4-dichlorophenyl)-5-(4-methoxyphenyl)-4-methyl-4,5-dihydro-1H-pyrazole-3-carboxamide hydrochloride]	117 ± 5	61	active in this model, reducing weight
